Patent US5821353A, “DNA encoding 1,3 beta-D glucan synthase subunits” (Merck & Co., Inc., priority 1996, dated 1998)

Key:
[1] = tested on: 1,3-beta-D glucan synthase from MY2145 (fks 1-4); assay: 1,3-beta-D glucan synthase assay, membrane preparation; assay type: biochemical, Saccharomyces cerevisiae; details: membranes of MY2145 (fks 1-4)
Description: (§1) Cell free extracts were prepared from mutant and wild type cells grown to logarithmic phase as previously described (Kang and Cabib, PNAS, 83:5808-5812, 1986). After homogenization with glass beads, the unbroken cells and debris were removed by a low speed centrifugation (1,000×gfor 5 min). The supernatant fluids were centrifuged at 100,000×g for 60 min and the pellets were washed with 2.5 ml (per gram of wet cells) of buffer containing 0.05M potassium phosphate (pH 7.5), 0.5 mM DTT, and 1.0 mM PMSF. The washed pellet was resuspended in the same buffer containing 5% glycerol. This served as the microsomal membranes source containing both chitin and glucan synthase enzymatic activities. The standard 1,3-beta-D glucan synthase reaction was initiated by mixing 35 mcg protein in cocktail I, which included TEK buffer (125 mM Tris chloride, pH 7.5, 31 mM KF, and 1 mM EDTA), 25% PBS, pH 7.0, 3.31 mcM GTP-gamma-S, and 0.25% BSA in a total volume of 69 mcL, with cocktail II, which included 4 units alpha-amylase, 25 mcg UDP-glucose, and 1 microCi UDP-^3 H-glucose, in a total volume of 11 mcL. Following 150 minutes of incubation at 30° C., the incorporation of UDP-^[…] into glucan was measured after precipitation with trichloroacetic acid.
(§2) Crude enzyme preparations associated with cell membranes were tested for glucan and chitin synthesis activities. […]

[2] = tested on: 1,3-beta-D glucan synthase from MY2144 (fks 1-3); assay: as above; assay type: biochemical, Saccharomyces cerevisiae; details: membranes of MY2144 (fks 1-3)
Description: as §1, §2

S. cerevisiae W303-1A = assay: secondary screen, zone size on agar; assay type: cell-based, Saccharomyces cerevisiae; details: 20 ng FK506, 10 mcg CsA, 10 mcg L733,560, 20 mcg aculeacin, 20 mcg papulacandin
Description: (§3) For positively identifying glucan synthase inhibitors, screening with strain R560-1C and its parent W303-1A was instituted in a manner identical to that described for calcineurin inhibitors. Complete loss of a zone, or marked reduction in size, on R560-1C versus W303-1A indicates a glucan synthase inhibitor. No zones are seen with calcineurin inhibitors using this pair of strains.
(§4) Each strain is grown at 28°-30° C. in YPAD/10 mM CaCl2 medium with shaking at 220 rpm (to mid or late log phase). The cultures are diluted 1:10 with water, and the OD values of the dilutions are measured at 600 nm (against a blank of YPAD/10 mM CaCl2 similarly diluted 1:10 in water). The OD value is multiplied by 10 to estimate the OD of the culture. Portions (100 ml) of YPAD/10 mM CaCl2 medium containing 1.5% agar, equilibrated at 45° C. in a water bath, are seeded with culture such that the final cell density in the agar would have an OD value of 0.015 (i.e., 3×10^6 cfu/ml; a sample calculation is provided below). The seeded agar is poured into 500 cm^2 Nunc plates. Once the agar plates have solidified, 10 mcL aliquots of samples containing test compounds, such as fermentation extracts, are dissolved in water, 100% methanol or ethanol, or up to 50% DMSO and are placed on each member of the two-plate set in 11 by 8 arrays.
(§5) The plates are incubated for 48 h at 28°-30° C. Diameters of the zones are read to the outermost edge and recorded in mm. The clarity of the zone is reported as clear (no designation), hazy (h), or very hazy (vh). Very hazy zones are best seen by viewing the plate under an elevated light placed between the assay dish and a dark wall.

S. cerevisiae R560-1C = assay: secondary screen, zone size on agar; assay type: cell-based, Saccharomyces cerevisiae; details: 20 ng FK506, 10 mcg CsA, 10 mcg L733,560, 20 mcg aculeacin, 20 mcg papulacandin
Description: as §3, §4, §5

[3] = target: 1,3-beta-D glucan synthase from X2180-1A (Saccharomyces cerevisiae, UniProt P38631); assay: 1,3-beta-D glucan synthase assay, membrane preparation; assay type: biochemical; details: membranes of X2180-1A
Description: as §1, §2

[4] = tested on: S. cerevisiae YFK798 (fks1-1 + CN); assay: primary screen, zone size on agar (calcineurin counter screen); assay type: cell-based, Saccharomyces cerevisiae; details: 20 ng FK506, 10 mcg CsA, 10 mcg L733,560, 20 mcg aculeacin, 20 mcg papulacandin, 48 h
Description: Counter screening strains were devised for identifying calcineurin inhibitors. Overexpression of yeast calcineurin in the fks1-1 mutant (strain YFK798) constitutes the most general of these. […] Glucan synthase inhibitors show neither effect and thus can be distinguished from calcineurin inhibitors.
as §4, §5

Pneumocystis carinii = details: rat model of P. carinii pneumonia; Schmatz et al. 1990; cited from earlier work
[5] = tested on: S. cerevisiae YFK007 (wild type); assay: primary screen, zone size on agar; assay type: cell-based, Saccharomyces cerevisiae; details: 20 ng FK506, 10 mcg CsA, 10 mcg L733,560, 20 mcg aculeacin, 20 mcg papulacandin, 48 h
Description: as §4, §5

[6] = tested on: S. cerevisiae YFK532-7C (fks1-1); assay: primary screen, zone size on agar; assay type: cell-based, Saccharomyces cerevisiae; details: 20 ng FK506, 10 mcg CsA, 10 mcg L733,560, 20 mcg aculeacin, 20 mcg papulacandin, 48 h
Description: as §4, §5

Sequence of 1,3-beta-D glucan synthase from X2180-1A (P38631 whole entry): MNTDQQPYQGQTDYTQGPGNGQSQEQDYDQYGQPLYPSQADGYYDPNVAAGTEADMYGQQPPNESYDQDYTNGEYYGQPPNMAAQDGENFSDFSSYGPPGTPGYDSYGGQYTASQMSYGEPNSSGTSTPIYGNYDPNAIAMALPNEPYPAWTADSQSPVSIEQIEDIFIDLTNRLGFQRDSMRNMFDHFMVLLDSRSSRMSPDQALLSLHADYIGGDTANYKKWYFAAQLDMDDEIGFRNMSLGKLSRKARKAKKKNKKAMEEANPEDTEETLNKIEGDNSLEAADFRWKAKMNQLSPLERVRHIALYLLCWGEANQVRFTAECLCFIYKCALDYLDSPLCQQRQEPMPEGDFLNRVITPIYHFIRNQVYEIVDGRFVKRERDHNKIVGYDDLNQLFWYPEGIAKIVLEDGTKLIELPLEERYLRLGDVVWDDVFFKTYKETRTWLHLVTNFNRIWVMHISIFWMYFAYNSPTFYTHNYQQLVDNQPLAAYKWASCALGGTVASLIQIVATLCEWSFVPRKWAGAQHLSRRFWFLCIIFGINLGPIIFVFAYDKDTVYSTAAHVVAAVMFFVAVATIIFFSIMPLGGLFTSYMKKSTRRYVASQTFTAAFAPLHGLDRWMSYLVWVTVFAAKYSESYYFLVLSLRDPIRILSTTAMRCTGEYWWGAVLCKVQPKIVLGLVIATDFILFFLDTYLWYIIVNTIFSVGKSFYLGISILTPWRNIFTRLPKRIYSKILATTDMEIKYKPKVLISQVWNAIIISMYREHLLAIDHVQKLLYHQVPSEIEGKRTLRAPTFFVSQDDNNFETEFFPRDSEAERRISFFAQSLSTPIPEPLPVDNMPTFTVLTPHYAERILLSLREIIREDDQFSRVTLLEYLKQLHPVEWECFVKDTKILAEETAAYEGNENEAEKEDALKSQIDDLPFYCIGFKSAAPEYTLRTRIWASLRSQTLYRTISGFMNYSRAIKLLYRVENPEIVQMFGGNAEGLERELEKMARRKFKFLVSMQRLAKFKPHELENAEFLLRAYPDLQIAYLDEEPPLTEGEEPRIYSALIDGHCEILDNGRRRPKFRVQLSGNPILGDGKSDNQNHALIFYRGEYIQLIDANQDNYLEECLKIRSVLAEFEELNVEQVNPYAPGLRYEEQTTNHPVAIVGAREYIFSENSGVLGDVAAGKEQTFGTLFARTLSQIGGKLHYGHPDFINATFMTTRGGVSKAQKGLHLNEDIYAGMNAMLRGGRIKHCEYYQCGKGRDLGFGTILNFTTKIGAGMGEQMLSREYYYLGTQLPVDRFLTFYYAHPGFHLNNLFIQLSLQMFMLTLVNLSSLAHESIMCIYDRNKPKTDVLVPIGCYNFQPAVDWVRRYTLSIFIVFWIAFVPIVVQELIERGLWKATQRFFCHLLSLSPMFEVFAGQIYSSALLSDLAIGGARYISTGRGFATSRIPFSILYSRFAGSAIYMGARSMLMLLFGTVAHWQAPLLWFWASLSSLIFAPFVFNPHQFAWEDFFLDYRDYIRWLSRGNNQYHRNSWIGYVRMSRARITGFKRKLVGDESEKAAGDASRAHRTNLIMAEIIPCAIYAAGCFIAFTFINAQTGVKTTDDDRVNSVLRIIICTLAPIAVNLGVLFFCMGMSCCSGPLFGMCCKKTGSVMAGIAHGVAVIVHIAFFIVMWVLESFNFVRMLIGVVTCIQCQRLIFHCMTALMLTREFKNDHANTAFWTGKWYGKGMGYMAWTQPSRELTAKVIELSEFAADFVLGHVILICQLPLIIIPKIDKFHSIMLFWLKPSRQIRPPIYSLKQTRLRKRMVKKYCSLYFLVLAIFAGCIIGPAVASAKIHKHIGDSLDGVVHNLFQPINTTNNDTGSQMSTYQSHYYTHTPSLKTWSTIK
Sequence of 1,3-beta-D glucan synthase from X2180-1A (P06780 1-206, further chain): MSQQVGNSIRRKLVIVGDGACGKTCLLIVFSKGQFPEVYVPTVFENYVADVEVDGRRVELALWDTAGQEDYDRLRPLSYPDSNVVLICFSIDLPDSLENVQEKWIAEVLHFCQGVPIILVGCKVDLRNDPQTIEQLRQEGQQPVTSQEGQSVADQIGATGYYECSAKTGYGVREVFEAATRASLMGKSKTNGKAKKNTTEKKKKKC

dihydropapulacandin [L-687,781]
IC50 [1]: 11.5 µg/mL
IC50 [2]: 11.1 µg/mL
Secondary Screen Zone size (mm) (S. cerevisiae W303-1A): 15-18 mm
Secondary Screen Zone size (mm) (S. cerevisiae R560-1C): 14-16 mm
IC50 [3]: 5.08 µg/mL
Primary Screen Zone size (mm) [4]: 26-28 mm
reducing the number of cysts in the lungs of infected rats (Pneumocystis carinii): effective
Primary Screen Zone size (mm) [5]: 20-22 mm
Primary Screen Zone size (mm) [6]: 26-28 mm
